Here are results for 31 compounds from US20220089609A1, “SUBSTITUTED QUINAZOLINONE DERIVATIVES AND THEIR USE AS POSITIVE ALLOSTERIC MODULATORS OF MGLUR4” (DOMAIN THERAPEUTICS, priority 2018, published 2022).

The assay addresses T1, human mGluR4 (hmGluR4) (Homo sapiens, UniProt Q14833).
T1 construct: expressed in transfected cells; host or cells: HEK-293 cells, transient co-transfection by electroporation
As to the kind of experiment: Calcium assay EC50 determination, positive allosteric modulator activity on hmGluR4 transiently over-expressed in HEK-293 cells. The class given is cell-based. To be noted: for EC50: PAM mode with EC20 glutamate, hmGluR4 in HEK-293 cells, intracellular calcium (Fluo4AM), read-out: mGluR4 positive allosteric modulator activity, half maximal effective concentration (EC50); for PAM activity on mGluR4: up to 100 μM. Here is the method: Compounds are tested successively for their agonist and positive allosteric modulator activities on human mGluR4 (hmGluR4) transiently over-expressed in HEK-293 cells. Compounds exert agonist activity if, by themselves in absence of glutamate, they are able to activate hmGluR4; and they exert positive allosteric modulator activity if they increase the action of glutamate.
HEK-293 cells are maintained in Modified Eagle's Medium supplemented with 10% Foetal Calf Serum, 1% Penicillin/Streptomycin and 1% non-essential amino acids at 37° C./5% CO2.
Cells are co-transfected by electroporation with four DNA plasmids encoding hmGluR4, a chimeric G protein allowing redirection of the activation signal to intracellular calcium pathway, and glutamate transporters to decrease extracellular glutamate concentration so as to limit receptor desensitization. After transfection, cells are cultured for 24 h at 37° C./5% CO2.
Calcium Assay EC50 determination
Receptor activity is detected by changes in intracellular calcium measured using the fluorescent Ca^2+ sensitive dye, Fluo4AM (Molecular Probes).
On the day of the assay, culture medium is aspirated and replaced during 3 hours by medium without serum supplemented with 1% Glutamax, 1% Penicillin/Streptomycin and 1% non-essential amino acids. Then, cells are washed with freshly prepared buffer B (HBSS 1× (PAA), Hepes 20 mM, MgSO4-7H2O 1 mM, Na2CO3 3.3 mM, CaCl2-2H2O 1.3 mM, 0.1% BSA, Probenecid 2.5 mM) and loaded at 37° C. in 5% CO2 for 1.5 hours with buffer B containing 1 μM Fluo4AM, 0.1 mg/mL Pluronic Acid, 7 μg/mL Glutamate Pyruvate Transaminase and 2 mM sodium pyruvate. Afterwards cells are washed twice with buffer B. Then cells are detached using StemPro Accutase (Fisher Scientific), resuspended in buffer B and seeded in 384 well plate at a density of 30,000 cells per well. Addition of compounds and intracellular Ca^2+ measurements (excitation 485 nm, emission 525 nm) are performed by the fluorescence microplate reader FLIP^Tetra (Molecular Devices).
Agonist and positive allosteric modulator activities of compounds are consecutively evaluated on the same cell plate. Agonist activity is first tested during 10 minutes with the addition of compound alone on the cells. Then, cells are stimulated by an EC20 glutamate concentration and fluorescence is recorded for additional 3 minutes. EC20 glutamate concentration is the concentration giving 20% of the maximal glutamate response. Agonist or positive allosteric modulator activity(ies) are evaluated in comparison to basal signals evoked by buffer B or EC20 glutamate alone, respectively.
On the technique in general: A change in cytosolic calcium serves as a functional read-out for many receptors and channels.

Values joined by “and” are separate entries in the source; they are usually repeats but may differ in a detail not shown here. Equal entries are not always repeated. Structures can show the parent of a compound that is named as a salt.

T1 sequence (Q14833 33-912): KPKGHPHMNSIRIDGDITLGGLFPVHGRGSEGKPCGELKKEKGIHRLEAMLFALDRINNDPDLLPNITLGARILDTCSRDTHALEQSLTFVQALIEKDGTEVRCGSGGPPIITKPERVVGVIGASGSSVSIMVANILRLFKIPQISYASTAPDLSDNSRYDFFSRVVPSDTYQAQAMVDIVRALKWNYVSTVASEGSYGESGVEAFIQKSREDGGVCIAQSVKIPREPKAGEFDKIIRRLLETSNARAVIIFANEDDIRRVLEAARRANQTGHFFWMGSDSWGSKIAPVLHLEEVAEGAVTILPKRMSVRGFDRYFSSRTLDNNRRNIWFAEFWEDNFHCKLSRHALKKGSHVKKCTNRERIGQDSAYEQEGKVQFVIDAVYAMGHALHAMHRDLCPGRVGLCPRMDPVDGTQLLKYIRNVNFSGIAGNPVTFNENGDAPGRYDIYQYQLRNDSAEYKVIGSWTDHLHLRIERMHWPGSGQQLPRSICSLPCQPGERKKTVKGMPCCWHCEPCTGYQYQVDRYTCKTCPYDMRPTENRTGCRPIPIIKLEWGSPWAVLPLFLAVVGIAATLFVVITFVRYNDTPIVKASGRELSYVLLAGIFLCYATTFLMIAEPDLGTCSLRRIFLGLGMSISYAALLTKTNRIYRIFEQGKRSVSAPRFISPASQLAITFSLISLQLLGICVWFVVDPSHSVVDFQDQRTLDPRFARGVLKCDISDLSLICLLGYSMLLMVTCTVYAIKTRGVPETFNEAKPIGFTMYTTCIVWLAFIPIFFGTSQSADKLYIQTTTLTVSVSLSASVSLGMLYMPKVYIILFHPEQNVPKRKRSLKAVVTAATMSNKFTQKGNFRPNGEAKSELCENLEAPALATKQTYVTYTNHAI

In the case of `Cc1cc(OC2CCC(=O)N(C)C2)cc2c(=O)[nH]c(-c3cc4ccsc4cn3)nc12` (single isomer, unassigned) [Compound 81-E1, (R or S)-8-Methyl-6-((1-methyl-6-oxopiperidin-3-yl)oxy)-2-(thieno[2,3-c]pyridin-5-yl)quinazolin-4(3H)-one], the EC50 was at most 100 nM.
Still for that read-out and setting: then `CCC(=O)N1CC[C@H](Oc2cc(C)c3nc(-c4cc5ccsc5cn4)[nH]c(=O)c3c2)C1` (stereo in doubt) [Compound 82-R, R-8-Methyl-6-(1-propionyl-pyrrolidin-3-yloxy)-2-thieno[2,3-c]pyridin-5-yl-3H-quinazolin-4-one], with 100 to 1000 nM; and `Cl.O=c1[nH]c(-c2cc3ccsc3cn2)nc2ccc(OCCCc3ccncc3)cc12` [Compound 4, hydrochloride], with 100 to 1000 nM.
On to `Cl.O=c1[nH]c(-c2cccnc2)nc2ccc(OCCCc3ccncc3)cc12` [Compound 6, 2-Pyridin-3-yl-6-(3-pyridin-4-yl-propoxy)-3H-quinazolin-4-one hydrochloride], for which the “PAM activity on mGluR4” value was “no PAM activity”.
As to `Cc1ccnc(-c2nc3ccc(OCCCc4ccncc4)cc3c(=O)[nH]2)c1` [Compound 11, 2-(4-methyl-2-pyridyl)-6-[3-(4-pyridyl)propoxy]-3H-quinazolin-4-one dihydrochloride], the EC50 was in the range of 100 to 1000 nM.
`Cc1cccc(-c2nc3ccc(OCCCc4ccncc4)cc3c(=O)[nH]2)n1` [Compound 12, 2-(6-methyl-2-pyridyl)-6-[3-(4-pyridyl)propoxy]-3H-quinazolin-4-one dihydrochloride]: the EC50 fell in the range of 100 to 1000 nM.
On the same count and under the same terms, the result for `Cc1cnc(-c2nc3ccc(OCCCc4ccncc4)cc3c(=O)[nH]2)cn1` [Compound 13, 2-(5-methylpyrazin-2-yl)-6-[3-(4-pyridyl)propoxy]-3H-quinazolin-4-one dihydrochloride] reads 1000 to 10000 nM; that for `O=c1[nH]c(-c2cc(C(F)(F)F)c(Cl)cn2)nc2ccc(OCCCc3ccncc3)cc12` [Compound 14, 2-[5-chloro-4-(trifluoromethyl)-2-pyridyl]-6-[3-(4-pyridyl)propoxy]-3H-quinazolin-4-one hydrochloride], 1000 to 10000 nM.
Take `O=c1[nH]c(-c2cc(Cl)ccn2)nc2ccc(OCCCc3ccncc3)cc12` [Compound 15, 2-(4-chloro-2-pyridyl)-6-[3-(4-pyridyl)propoxy]-3H-quinazolin-4-one hydrochloride]: the EC50 is 100 to 1000 nM and < 1000 nM.
For `CCc1ccnc(-c2nc3ccc(OCCCc4ccncc4)cc3c(=O)[nH]2)c1` [Compound 16, 2-(4-ethyl-2-pyridyl)-6-[3-(4-pyridyl)propoxy]-3H-quinazolin-4-one dihydrochloride], the EC50 lay within 1000 to 10000 nM.
With `O=c1[nH]c(-c2cccc(C(F)(F)F)n2)nc2ccc(OCCCc3ccncc3)cc12` [Compound 17, 6-[3-(4-pyridyl)propoxy]-2-[6-(trifluoromethyl)-2-pyridyl]-3H-quinazolin-4-one hydrochloride], the EC50 was at most 100 nM.
Regarding `O=c1[nH]c(-c2cc(Br)ccn2)nc2ccc(OCCCc3ccncc3)cc12` [Compound 18, 2-(4-bromo-2-pyridyl)-6-[3-(4-pyridyl)propoxy]-3H-quinazolin-4-one], the EC50 lay within 100 to 1000 nM.
Take `O=c1[nH]c(-c2cc(C3CC3)ccn2)nc2ccc(OCCCc3ccncc3)cc12` [Compound 19, 2-(4-cyclopropyl-2-pyridyl)-6-[3-(4-pyridyl)propoxy]-3H-quinazolin-4-one dihydrochioride]: the EC50 lay within 100 to 1000 nM.
For the compound `Cl.O=c1[nH]c(-c2cccc(Cl)c2)nc2ccc(OCCCc3ccncc3)cc12` [Compound 20, 2-(3-chlorophenyl)-6-[3-(4-pyridyl)propoxy]-3H-quinazolin-4-one hydrochloride], the “PAM activity on mGluR4” value is on record as “no PAM activity”.
As to `O=c1[nH]c(-c2cccc(C(F)(F)F)c2)nc2ccc(OCCCc3ccncc3)cc12` [Compound 21, 6-[3-(4-pyridyl)propoxy]-2-[3-(trifluoromethyl)phenyl]-3H-quinazolin-4-one hydrochloride], the “PAM activity on mGluR4” value is given as “no PAM activity”.
With `Cc1nc(-c2nc3ccc(OCCCc4ccncc4)cc3c(=O)[nH]2)co1` [Compound 22, 2-(2-Methyl-oxazol-4-yl)-6-(3-pyridin-4-yl-propoxy)-3H-quinazolin-4-one hydrochloride], the EC50 lay in the range of 1000 to 10000 nM.
In the case of `O=c1[nH]c(-c2cc3sccc3cn2)nc2ccc(OCCc3cccnc3)cc12` [Compound 23, 6-(2-Pyridin-3-yl-ethoxy)-2-thieno[3,2-c]pyridin-6-yl-3H-quinazolin-4-one hydrochloride], the EC50 fell in the range of 100 to 1000 nM.
In the case of `O=c1[nH]c(-c2cc3sccc3cn2)nc2ccc(OCc3ccc(Br)cc3)cc12` [Compound 24, 6-(4-Bromo-benzyloxy)-2-thieno[3,2-c]pyridin-6-yl-3H-quinazolin-4-one], the EC50 is above 10000 nM.
On to `O=c1[nH]c(-c2cc3cccn3cn2)nc2ccc(OC3CN(c4ccncn4)C3)cc12` [Compound 27, 6-(1-Pyrimidin-4-yl-azetidin-3-yloxy)-2-pyrrolo[1,2-c]pyrimidin-3-yl-3H-quinazolin-4-one], for which the EC50 was above 10000 nM.
For the compound `CCC(=O)N1CC(Oc2ccc3nc(-c4cc5ccsc5cn4)[nH]c(=O)c3c2)C1` [Compound 30, 6-(1-Propionyl-azetidin-3-yloxy)-2-thieno[2,3-c]pyridin-5-yl-3H-quinazolin-4-one], the EC50 fell in the range of 100 to 1000 nM.
With `CCC(=O)N1CCC(Oc2ccc3nc(-c4cc5sccc5cn4)[nH]c(=O)c3c2)CC1` [Compound 32, 6-(1-Propionyl-piperidin-4-yloxy)-2-thieno[3,2-c]pyridin-6-yl-3H-quinazolin-4-one], the EC50 was in the range of 100 to 1000 nM.
Consider `O=c1[nH]c(-c2cc3cccn3cn2)nc2ccc(OCCN3CCOCC3)cc12` [Compound 33, 6-(2-Morpholin-4-yl-ethoxy)-2-pyrrolo[1,2-c]pyrimidin-3-yl-3H-quinazolin-4-one hydrochloride], for which the EC50 was above 10000 nM.
In the case of `Cn1c(-c2cc3sccc3cn2)nc2ccc(OCCCc3ccncc3)cc2c1=O` [Compound 38, 3-Methyl-6-(3-pyridin-4-yl-propoxy)-2-thieno[3,2-c]pyridin-6-yl-quinazolin-4-one], the “PAM activity on mGluR4” value was “no PAM activity”.
Regarding `CC(C)(C)OC(=O)N1CCC(Oc2ccc3nc(-c4ccccn4)[nH]c(=O)c3c2)CC1` [Compound 39, 4-(4-Oxo-2-pyridin-2-yl-3,4-dihydro-quinazolin-6-yloxy)-piperidine-1-carboxylic acid tert-butyl ester], the EC50 lay within 1000 to 10000 nM.
For `CC(=O)N1CCC(Oc2ccc3nc(-c4ccccn4)[nH]c(=O)c3c2)CC1` [Compound 41, 6-(1-Acetyl-piperidin-4-yloxy)-2-pyridin-2-yl-3H-quinazolin-4-one], the EC50 was above 10000 nM.
For the compound `CC(=O)N1CCC(COc2ccc3nc(-c4cc(C(F)(F)F)ccn4)[nH]c(=O)c3c2)CC1` [Compound 44, 6-(1-Acetyl-piperidin-4-ylmethoxy)-2-(4-trifluoromethyl-pyridin-2-yl)-3H-quinazolin-4-one], the EC50 lay within 100 to 1000 nM.
Same read-out and setting: the result for `CC(=O)N1CCC(Oc2ccc3nc(-c4cc5ccsc5cn4)[nH]c(=O)c3c2)C1` (stereo not shown) [Compound 51, 6-(1-Acetyl-pyrrolidin-3-yloxy)-2-thieno[2,3-c]pyridin-5-yl-3H-quinazolin-4-one] reads 100 to 1000 nM; that for `CCC(=O)N1CCN(c2ccc3nc(-c4cc(C(F)(F)F)ccn4)[nH]c(=O)c3c2)CC1` [Compound 54, 6-(4-Propionyl-piperazin-1-yl)-2-(4-trifluoromethyl-pyridin-2-yl)-3H-quinazolin-4-one], 1000 to 10000 nM.
Turning to `CC(=O)N1CCC(c2ccc3nc(-c4cc5ccsc5cn4)[nH]c(=O)c3c2)CC1` [Compound 57, 6-(1-acetyl-piperidin-4-yl)-2-thieno[2,3-c]pyridin-5-yl-3H-quinazolin-4-one], the EC50 fell in the range of 100 to 1000 nM.
On the same count and under the same terms, then `O=c1[nH]c(-c2cc(C(F)(F)F)ccn2)nc2ccc(OCCC3CCOCC3)cc12` [Compound 58, 6-[2-(Tetrahydro-pyran-4-yl)-ethoxy]-2-(4-trifluoromethyl-pyridin-2-yl)-3H-quinazolin-4-one], with 100 to 1000 nM; and `O=c1[nH]c(-c2cc3ccsc3cn2)nc2ccc(OCCCc3ccncc3F)cc12` [Compound 59, 6-[3-(3-Fluoro-pyridin-4-yl)-propoxy]-2-thieno[2,3-c]pyridin-5-yl-3H-quinazolin-4-one], with 100 to 1000 nM.
